Laboratory results reported in patent publication US7511145B2 (Genelabs Technologies, Inc., priority 2003, dated 2009).

Target: T1, HCV-NS5b (Hepatitis C virus genotype 1b, UniProt Q9WMX2)
T1 construct: (His)6 (C); made in house; host or cells: XL-1 cells (E. coli), IPTG-inducible plasmid, nickel-NTA purification
Assay: HCV-NS5b enzyme assay (incorporation of radiolabeled UTP)
Type: biochemical
Conditions: for inhibition at 33 µM: enzyme inhibition at compound concentration of 33 uM; for inhibition at 100 µM: read-out: % inh@100, enzyme inhibition at compound concentration of 100 uM
From the text: The coding sequence of NS5b protein was cloned by PCR from pFKI389luc/NS3-3′/ET as described by Lohmann, V., et al. (1999) Science 285, 110-113 using the following primers: […]
The cloned fragment was missing the C terminus 21 amino acid residues. The cloned fragment was inserted into an IPTG-inducible expression plasmid that provided an epitope tag (His)6 at the carboxy terminus of the protein.
The recombinant enzyme was expressed in XL-1 cells and after induction of expression, the protein was purified using affinity chromatography on a nickel-NTA column. Storage condition was 10 mM Tris-HCl pH 7.5, 50 mM NaCl, 0.1 mM EDTA, 1 mM DTT, 20% glycerol at −20° C.
The polymerase activity was assayed by measuring incorporation of radiolabeled UTP into a RNA product using a biotinylated, heteropolymeric template, which included a portion of the HCV genome. Typically, the assay mixture (50 μL) contained 10 mM Tris-HCl (pH 7.5), 5 mM MgCl2, 0.2 mM EDTA, 10 mM KCl, 1 unit/μL RNAsin, 1 mM DTT, 10 μM each of NTP, including [^3H]-UTP, and 10 ng/μL heteropolymeric template. Test compounds were initially dissolved in 100% DMSO and further diluted in aqueous buffer containing 5% DMSO. Typically, compounds were tested at concentrations between 1 nM and 100 μM. Reactions were started with addition of enzyme and allowed to continue at 37° C. for 2 hours. Reactions were quenched with 8 μL of 100 mM EDTA and reaction mixtures (30 μL) were transferred to streptavidin-coated scintillation proximity microtiter plates (FlashPlates) and incubated at 4° C. overnight. Incorporation of radioactivity was determined by scintillation counting.
Shown in Table IX below are the values for enzyme inhibition measured at compound concentrations of 100 and 33 uM, (% inh@[…] and % inh@33, respectively). The percent inhibition values are calculated from the differential incorporation of radioactivity compared to a control reaction without compound: % inhibition=100−[(CountsINH−CountsBKG)/CountsCTRL−CountsBKG)×100 where CountsINH is the signal of the testwell with inhibitor, CountsBKG is the background signal and CountsCTRL is the signal of a testwell without inhibitor.

COc1ccc(-c2cccc(C)c2)c(-c2ccc3cc(-c4nc5cc(C(=O)O)ccc5n4C4CCCCC4)ccc3n2)c1 [Compound 367, 1-cyclohexyl-2-[2-(4-methoxy-3′-methyl-biphen-2-yl)-quinolin-6-yl]-1H-benzoimidazole-5-carboxylic acid]
inhibition at 33 µM: 103%
inhibition at 100 µM: 101%

NC(=O)[C@H](Cc1cnc[nH]1)NC(=O)c1ccc2cc(-c3nc4cc(C(=O)O)ccc4n3C3CCCCC3)ccc2n1 [Compound 368]
inhibition at 33 µM: 51.2%
inhibition at 100 µM: 79.5%

O=C(O)c1ccc2c(c1)nc(-c1ccc3nc(-c4ccccc4-c4ccncc4)ccc3c1)n2C1CCCCC1 [Compound 369, 1-Cyclohexyl-2-[2-(2-pyrid-4-yl-phenyl)-quinolin-6-yl]-1H-benzoimidazole-5-carboxylic acid]
inhibition at 33 µM: 96.2%
inhibition at 100 µM: 98.8%

O=C(O)c1ccc2c(c1)nc(-c1ccc3nc(-c4cccc(C(=O)N5CCCC5)c4)ccc3c1)n2C1CCCCC1 [Compound 370, 1-Cyclohexyl-2-{2-[3-(pyrrolidine-1-carbonyl)-phenyl]-quinolin-6-yl}-1H-benzoimidazole-5-carboxylic acid]
inhibition at 33 µM: 97.8%
inhibition at 100 µM: 99.7%

Nc1ccc(-c2ccc3cc(-c4nc5cc(C(=O)O)ccc5n4C4CCCCC4)ccc3n2)cc1Br [Compound 372, 2-[2-(4-amino-3-bromo-phenyl)-quinolin-6-yl]-1-cyclohexyl-1H-benzoimidazole-5-carboxylic acid]
inhibition at 33 µM: 98.1%
inhibition at 100 µM: 98.2%

O=C(O)c1ccc2c(c1)nc(-c1ccc3[nH]c(-c4ccccc4)cc(=O)c3c1)n2C1CCCCC1 [Compound 373, 1-cyclohexyl-2-(4-oxo-2-phenyl-1,4-dihydro-quinolin-6-yl)-1H-benzoimidazole-5-carboxylic acid]
inhibition at 33 µM: 39.9%
inhibition at 100 µM: 83.8%

NC(=O)c1cc(-c2ccc3cc(-c4nc5cc(C(=O)O)ccc5n4C4CCCCC4)ccc3n2)ccc1O [Compound 374, 2-[2-(3-carbamoyl-4-hydroxy-phenyl)-quinolin-6-yl]-1-cyclohexyl-1H-benzoimidazole-5-carboxylic acid]
inhibition at 33 µM: 97.6%
inhibition at 100 µM: 98.3%

O=C(O)c1ccc2c(c1)nc(-c1ccc3nc(-c4cc(OCC(=O)N5CCCC5)ccc4-c4ccc(Cl)cc4)ccc3c1)n2C1CCCCC1 [Compound 376, 2-{2-[4′-Chloro-4-(2-oxo-2-pyrrolidin-1-yl-ethoxy)-biphen-2-yl]-quinolin-6-yl}-1-cyclohexyl-1H-benzoimidazole-5-carboxylic acid]
inhibition at 33 µM: 97.4%
inhibition at 100 µM: 97.2%

NC(=O)CNC(=O)c1ccc(-c2ccccc2)c(-c2ccc3cc(-c4nc5cc(C(=O)O)ccc5n4C4CCCCC4)ccc3n2)c1 [Compound 377, 2-{2-[4-(Carbamoylmethyl-carbamoyl)-biphen-2-yl]-quinolin-6-yl}-1-cyclohexyl-1H-benzoimidazole-5-carboxylic acid]
inhibition at 33 µM: 99.2%
inhibition at 100 µM: 99.4%

CNC(=O)c1ccc(-c2ccc(Cl)cc2)c(-c2ccc3cc(-c4nc5cc(C(=O)O)ccc5n4C4CCCCC4)ccc3n2)c1 [Compound 378, 2-[2-(4′-chloro-4-methylcarbamoyl-biphen-2-yl)-quinolin-6-yl]-1-cyclohexyl-1H-benzoimidazole-5-carboxylic acid]
inhibition at 33 µM: 100%
inhibition at 100 µM: 101%

Cc1cc(-c2nc3cc(C(=O)O)ccc3n2C2CCCCC2)cc2ccc(-c3ccccc3-c3ccccc3)nc12 [Compound 379, 2-(2-Biphen-2-yl-8-methyl-quinolin-6-yl)-1-cyclohexyl-1H-benzoimidazole-5-carboxylic acid]
inhibition at 33 µM: 93.3%
inhibition at 100 µM: 97.8%

O=C(O)c1ccc2c(c1)nc(-c1ccc3nc(-c4ccccc4)cc(Nc4ccc(Cl)cc4)c3c1)n2C1CCCCC1 [Compound 380, 2-[4-(4-chloro-phenylamino)-2-phenyl-quinolin-6-yl]-1-cyclohexyl-1H-benzoimidazole-5-carboxylic acid]
inhibition at 33 µM: 97.6%
inhibition at 100 µM: 101%

O=C(O)c1ccc2c(c1)nc(-c1ccc3nc(-c4cc(O)cc(O)c4)ccc3c1)n2C1CCCCC1 [Compound 381, 1-cyclohexyl-2-[2-(3,5-dihydroxy-phenyl)-quinolin-6-yl]-1H-benzoimidazole-5-carboxylic acid]
inhibition at 33 µM: 94.3%
inhibition at 100 µM: 98%

COc1ccc(-c2ccc(C(N)=O)cc2)c(-c2ccc3cc(-c4nc5cc(C(=O)O)ccc5n4C4CCCCC4)ccc3n2)c1 [Compound 382, 2-[2-(4′-carbamoyl-4-methoxy-biphen-2-yl)-quinolin-6-yl]-1-cyclohexyl-1H-benzoimidazole-5-carboxylic acid]
inhibition at 33 µM: 101%
inhibition at 100 µM: 101%

COc1ccc(-c2ccc(CN)cc2)c(-c2ccc3cc(-c4nc5cc(C(=O)O)ccc5n4C4CCCCC4)ccc3n2)c1 [Compound 384, 2-[2-(4′-aminomethyl-4-methoxy-biphen-2-yl)-quinolin-6-yl]-1-cyclohexyl-1H-benzoimidazole-5-carboxylic acid]
inhibition at 33 µM: 95.5%
inhibition at 100 µM: 99.3%

NC(=O)[C@H](CO)NC(=O)c1ccc2cc(-c3nc4cc(C(=O)O)ccc4n3C3CCCCC3)ccc2n1 [Compound 385, 2-[2-(1-Carbamoyl-2-hydroxyethylcarbamoyl)quinolin-6-yl]-1-cyclohexyl-1H-benzimidazole-5-carboxylic acid]
inhibition at 33 µM: 42.6%
inhibition at 100 µM: 76.2%

O=C(O)c1ccc2c(c1)nc(-c1ccc3nc(-c4ccccc4)c(-c4ccccc4)cc3c1)n2C1CCCCC1 [Compound 386, 1-cyclohexyl-2-(2,3-diphenyl-quinolin-6-yl)-1H-benzoimidazole-5-carboxylic acid]
inhibition at 33 µM: 100%
inhibition at 100 µM: 99.9%

O=C(O)c1ccc2c(c1)nc(-c1ccc3nc(-c4ccccc4-c4ccc(Cl)cc4)ccc3c1)n2C1CCCCC1 [Compound 387, 2-[2-(4′-Chloro-biphen-2-yl)-quinolin-6-yl]-1-cyclohexyl-1H-benzoimidazole-5-carboxylic acid]
inhibition at 33 µM: 99%
inhibition at 100 µM: 98.7%

O=C(O)c1ccc2c(c1)nc(-c1cc3ccc(-c4ccccc4-c4ccccc4)nc3cc1F)n2C1CCCCC1 [Compound 388, 2-(2-Biphen-2-yl-7-fluoro-quinolin-6-yl)-1-cyclohexyl-1H-benzoimidazole-5-carboxylic acid]
inhibition at 33 µM: 98.7%
inhibition at 100 µM: 98.6%

Cc1ccc(-c2nc3ccc(-c4nc5cc(C(=O)O)ccc5n4C4CCCCC4)cc3nc2-c2ccc(C)cc2)cc1 [Compound 389, 1-Cyclohexyl-2-(2,3-di-p-tolylquinoxalin-6-yl)-1H-benzimidazole-5-carboxylic acid]
inhibition at 33 µM: 99.9%
inhibition at 100 µM: 99.5%

O=C(O)c1ccc2c(c1)nc(-c1ccc3nc(-c4ccc(-c5ccccc5)cc4)ccc3c1)n2C1CCCCC1 [Compound 390, 2-(2-biphenyl-4-yl-quinolin-6-yl)-1-cyclohexyl-1H-benzoimidazole-5-carboxylic acid]
inhibition at 33 µM: 79.9%
inhibition at 100 µM: 92.5%

Cc1nc(N)sc1-c1ccc2cc(-c3nc4cc(C(=O)O)ccc4n3C3CCCCC3)ccc2n1 [Compound 391]
inhibition at 33 µM: 94.1%
inhibition at 100 µM: 97.5%

O=C(O)c1ccc2c(c1)nc(-c1ccc3nc(CCCO)ccc3c1)n2C1CCCCC1 [Compound 392, 1-Cyclohexyl-2-[2-(3-hydroxy-propyl)-quinolin-6-yl]-1H-benzoimidazole-5-carboxylic acid]
inhibition at 33 µM: 83.8%
inhibition at 100 µM: 93.5%

O=C(O)COc1ccc(-c2ccc(Cl)cc2)c(-c2ccc3cc(-c4nc5cc(C(=O)O)ccc5n4C4CCCCC4)ccc3n2)c1 [Compound 393, 2-[2-(4-Carboxymethoxy-4′-chloro-biphen-2-yl)-quinolin-6-yl]-1-cyclohexyl-1H-benzoimidazole-5-carboxylic acid]
inhibition at 33 µM: 97.6%
inhibition at 100 µM: 96.9%

COc1cc(Br)c2oc(-c3ccc4cc(-c5nc6cc(C(=O)O)ccc6n5C5CCCCC5)ccc4n3)cc2c1 [Compound 394, 2-[2-(7-bromo-5-methoxy-benzofuran-2-yl)-quinolin-6-yl]-1-cyclohexyl-1H-benzoimidazole-5-carboxylic acid]
inhibition at 33 µM: 98.9%
inhibition at 100 µM: 100%

O=C(O)c1ccc2c(c1)nc(-c1ccc3nc(-c4ccccc4-c4ccccc4)ccc3c1)n2C1CCCCC1 [Compound 395, 2-(2-biphen-2-yl-quinolin-6-yl)-1-cyclohexyl-1H-benzoimidazole-5-carboxylic acid]
inhibition at 33 µM: 100%
inhibition at 100 µM: 101%
